Measurements published in patent US20220227859A1, “METHOD TO TREAT TYPE 2 INFLAMMATION OR MAST-CELL DEPENDENT DISEASE” (INSERM (INSTITUT NATIONAL DE LA SANTÉ ET DE LA RECHERCHE …, priority 2019, published 2022).

What was measured:
[1] = system: TRPV1+ nociceptors; settings: mouse, in vivo
[2] = system: skin MCs; test: In vivo two-photon microscopy of Pirt-GCaMP3 mice: degranulation of Av.SRho+ MCs; parameters: species or system mouse; settings: for degranulation of Av.SRho+ MCs: mouse, in vivo
[3] = system: TRPV1+ nociceptors; settings: mouse, in vivo; remark: listed apart in the source
[4] = system: DRG neurons; type: cell-based, mouse

Compound | GCaMP3 fluorescence levels in skin neurons [1] | time by which increase in GCaMP3 fluorescence preceded degranulation of cognate Av.SRho+ MCs ([2]; i.d. 1 μM, video recorded for 60 minutes) [min] | degranulation of Av.SRho+ MCs [2] | expression of the stress marker K-6 [3] | filaggrin organization [3] | skin lesions development and tested pathological features [3] | intracellular calcium levels in DRG neurons [4]
COc1cc(CNC(=O)CCCC/C=C/C(C)C)ccc1O [capsaicin] | strong increase | 10 to 15 | most of Av.SRho^+ MCs exhibited a degranulated phenotype | – | – | – | –
C=C(C)[C@]12C[C@@H](C)[C@@]34O[C@](Cc5ccccc5)(O[C@@H]1[C@@H]3C=C(COC(=O)Cc1ccc(O)c(OC)c1)C[C@]1(O)C(=O)C(C)=C[C@@H]41)O2 [RTX, resiniferatoxin] | – | – | – | decreased | restored | strong reduction | –
Staphylococcal enterotoxin B [SEB] | significant increase | – | presence of adjacent degranulated Av.SRho^+ MCs | – | – | – | weak
